# Laboratory results: paper PMC11476419, “Analysis of Punicalin and Punicalagin Interaction with PDIA3 and PDIA1” (International Journal of Molecular Sciences, 2024)
# Legend:
# T98G cells = experiment: Cell viability by MTT assay; format: cell-based, human
# Protocol: (§1) The cell viability assay was used to evaluate the effect of punicalin as a PDI inhibitor. T98G and U87 MG glioblastoma cell lines were treated with increasing concentrations of punicalin, and the reduction in MTT substrate was determined after 24 h, 48 h, and 72 h. […] Here, we compared the ability of punicalin with that of punicalagin to prevent the growth of these cells (Figure 5).
# (§2) T98G and U-87 MG cells were seeded into 96-well plates (10.000 cells/well). The effect of punicalin, at the final concentration of 1 µM to 20 µM, was evaluated on cell viability after 24 h and 48 h of incubation. To assess cell viability, the enzymatic reduction of MTT (3-(4,5-dimethylthiazol-2-yl)-2,5-diphenyl-2H-tetrazolium bromide) (Sigma-Aldrich, Milan, Italy, cat. M2128) to MTT formazan was used. Cell cultures were further incubated for 2 h in culture medium containing 0.5 mg/mL MTT. After 2 h of incubation, the solution was removed and the blue MTT formazan product was dissolved in DMSO (Sigma-Aldrich, cat. D8418). After 30 min at room temperature, the absorbance of the formazan solution was spectrophotometrically read at 570 nm using an Appliskan® plate reader (Thermo Fisher Scientific, Monza, Italy).
# U87 MG cells [1] = experiment: Cell viability by MTT assay; format: cell-based, human; details: 1 µM to 20 µM, 24 h, 48 h, 72 h
# Protocol: as §1, §2
# U87 MG cells [2] = experiment: Cell counting (crystal violet); format: cell-based, human; details: 5 µM and 20 µM, 24 h, 48 h, 72 h
# Protocol: The number of cells was evaluated after 24 h, 48 h, and 72 h of treatment with punicalin at the concentration of 5 µM and 20 µM (Figure 5b). […] However, an increase in the cell number occurred after 72 h of treatment with punicalin at a 5 µM concentration.
# T98G and U-87 MG cells were seeded into 12-well plates (70,000 cells/well) and treated with 5 µM and 20 µM concentrations of punicalin for 24 h, 48 h, and 72 h. At the end of incubation, the cells were washed with PBS (Sigma-Aldrich, cat. D8662), fixed with cold methanol for 20 min, stained with 0.1% crystal violet in methanol/PBS (ratio 1:4) at room temperature for 1 h, and washed again in PBS. To estimate the number of cells remaining in each well, the crystal violet was solubilized by adding a methanol/water solution (50% v/v) and the absorbance at 595 nm was measured.
# PDIA1 = target: T1, PDIA1 (Homo sapiens, UniProt P07237); experiment: Insulin turbidity assay, disulfide reductase activity; format: biochemical; details: insulin substrate, PDIA1 800 nM, reducing conditions
# T1 construct: The mature human PDIA1 with an N-terminal His6x-tag was expressed and purified; His6 (N); made in house
# T1 sequence (P07237 18-508): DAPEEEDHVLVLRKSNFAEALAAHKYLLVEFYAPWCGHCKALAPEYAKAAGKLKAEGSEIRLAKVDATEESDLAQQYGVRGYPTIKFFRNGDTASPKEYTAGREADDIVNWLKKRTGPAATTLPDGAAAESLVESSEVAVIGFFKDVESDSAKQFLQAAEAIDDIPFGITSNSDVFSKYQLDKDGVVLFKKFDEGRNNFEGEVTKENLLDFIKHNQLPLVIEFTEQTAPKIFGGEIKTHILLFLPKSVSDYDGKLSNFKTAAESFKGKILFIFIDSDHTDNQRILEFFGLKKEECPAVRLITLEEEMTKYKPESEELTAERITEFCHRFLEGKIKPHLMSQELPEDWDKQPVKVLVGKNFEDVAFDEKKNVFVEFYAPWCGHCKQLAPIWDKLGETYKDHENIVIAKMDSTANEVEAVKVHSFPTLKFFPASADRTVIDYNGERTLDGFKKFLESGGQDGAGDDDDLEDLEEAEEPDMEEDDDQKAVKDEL
# Protocol: (§3) To further evaluate the inhibitory effect of punicalin and punicalagin on the enzymatic activity of the two proteins, we performed a different assay using insulin, a physiologically more appropriate substrate. The results obtained are reported in Figure 4 and show again a lesser inhibitory effect of punicalin compared to punicalagin, as observed with the glutathione-based assay.
# PDI disulfide reductase activity was assayed by measuring the reduction of insulin catalyzed by PDIs with DTT. A 50 μM stock solution of each PDI was reduced using TCEP (5 mM final concentration) for 90 min at room temperature. […] After incubation, an equal volume of the 2× reaction mixture (consisting of DTT 50 μM and human insulin 0.32 mM) was added. Protein activity was evaluated by monitoring the increase in turbidity of the solutions at 600 nm.
# (§4) In both assays, the inhibition constants were extrapolated by GraphPad Prism 8.0 software (GraphPad Software, San Diego, CA, USA), plotting the obtained data as logarithm dose–response curves.
# PDIA3 = target: T2, PDIA3 (Homo sapiens, UniProt P30101); experiment: as above; format: biochemical; details: insulin substrate, PDIA3 1600 nM, reducing conditions
# T2 construct: The mature recombinant form (devoid of the N-terminal presence) of the human PDIA3 protein was expressed and purified; made in house
# T2 sequence (P30101 25-505): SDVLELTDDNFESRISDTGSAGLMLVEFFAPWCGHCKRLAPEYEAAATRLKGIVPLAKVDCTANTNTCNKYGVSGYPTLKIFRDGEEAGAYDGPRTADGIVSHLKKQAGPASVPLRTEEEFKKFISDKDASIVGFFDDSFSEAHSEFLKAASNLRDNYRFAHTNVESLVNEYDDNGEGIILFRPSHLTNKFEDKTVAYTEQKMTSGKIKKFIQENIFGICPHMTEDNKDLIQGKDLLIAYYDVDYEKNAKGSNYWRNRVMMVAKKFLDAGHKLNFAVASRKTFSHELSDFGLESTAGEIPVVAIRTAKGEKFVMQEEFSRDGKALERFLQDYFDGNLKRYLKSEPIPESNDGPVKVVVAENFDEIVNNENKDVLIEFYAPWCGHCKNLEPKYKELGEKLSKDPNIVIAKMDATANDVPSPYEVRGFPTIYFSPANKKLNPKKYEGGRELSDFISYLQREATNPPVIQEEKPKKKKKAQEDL
# Protocol: as §3
# PDI disulfide reductase activity was assayed by measuring the reduction of insulin catalyzed by PDIs with DTT. A 50 μM stock solution of each PDI was reduced using TCEP (5 mM final concentration) for 90 min at room temperature. Aliquots of the stock solution were diluted in the incubation mixture (PDIA1 1.6 µM and PDIA3 3.2 µM) containing sodium phosphate buffer (100 mM sodium phosphate, 2 mM EDTA, pH 7.0) added with punicalin/punicalagin (concentration ranging from 0 to 50 µM) and incubated at 37 °C for 1 h. After incubation, an equal volume of the 2× reaction mixture (consisting of DTT 50 μM and human insulin 0.32 mM) was added. Protein activity was evaluated by monitoring the increase in turbidity of the solutions at 600 nm.
# as §4
# PDIA3 in U87 MG cells = experiment: Cellular distribution of PDIA3 by immunofluorescence; format: cell-based, human; details: 5 µM for 48 h and 20 µM for 24 h
# Protocol: (§5) Possible changes in the cellular distribution of PDIA3 were previously studied by immunofluorescence assay. Recently, Bilches Medinas et al. reported that a PDIA3 mutation with the loss of functions induced protein aggregation. […] T98G and U87 MG cells were treated with 5 µM and 20 µM of punicalin for 48 h and 24 h, respectively (Figure 8).
# (§6) T98G and U-87 MG cells were seeded on coverslips into 6-well plates (200,000 cells/well) and incubated for 24 h and 48 h in the presence of 5 µM and 20 µM punicalagin/punicalin. Cells grown on coverslips were washed with PBS, fixed with 3.7% formaldehyde for 20 min, rinsed with PBS, and then permeabilized with cold methanol (−20 °C) for 5 min. Immunofluorescence analysis was performed according to Paglia et al. using a specific primary antibody against PDIA3 (Millipore, Milan, Italy, cat. ABE1032). Coverslips were mounted on glass microscope slides with DuolinkTM mounting medium and examined using a fluorescence microscope (Leica AF6000 Modular System, Leica, Milan, Italy) with a 63× oil immersion objective. Samples were captured under the same acquisition parameters.
# PDIA3 in T98G cells = experiment: as above; format: cell-based, human; details: 5 µM for 48 h and 20 µM for 24 h
# Protocol: as §5, §6
smiles,measurement,setting,value
"O=C1OC[C@H]2OC(O)[C@H](O)[C@@H](O)[C@@H]2OC(=O)c2cc(O)c(O)c(O)c2-c2c(O)c(O)c3oc(=O)c4c(c(O)c(O)c5oc(=O)c2c3c54)-c2c1cc(O)c(O)c2O (mixture of isomers) [Punicalin, punicalin]",effect on cell viability (MTT),"T98G cells; 1 µM to 20 µM, 24 h, 48 h, 72 h",concentration- and time-dependent decrease in cell viability
same,effect on cell viability,T98G cells; 20 µM,significantly reduced the cell viability
same,effect on cell viability (MTT),U87 MG cells [1],the effect becomes evident only at the highest concentration
same,effect on cell number,U87 MG cells [2],the effect is evident only at the highest concentration used
same,IC50,PDIA1,> 250 µM
same,IC50,PDIA3,28.7 µM
same,change in cellular distribution of PDIA3,PDIA3 in U87 MG cells,marked change in the fluorescence pattern and a cellular redistribution of PDIA3
same,change in cellular distribution of PDIA3,PDIA3 in T98G cells,marked change in the fluorescence pattern and a cellular redistribution of PDIA3
